Results reported in patent US10308620B2, “Muscarinic M1 receptor positive allosteric modulators” (SUVEN LIFE SCIENCES LIMITED, priority 2015, dated 2019).

Assays:
[1] = Rodent brain penetration study; type: in vivo; settings: rat, oral, 3 mg/kg, p.o., male Wistar rats, read-out: Single dose Rat Brain Penetration (Cb/Cp)
Procedure: Rodent Brain Penetration Study
Male Wistar rats (260±40 grams) were used as experimental animals. Three animals were housed in each cage. Animals were given water and food ad libitum throughout the experiment and maintained on a 12 hours light/dark cycle.
Brain penetration was determined in discrete manner in rats. One day prior to dosing day, male Wistar rats were acclimatized and randomly grouped according to their weight. At each time point (0.50, 1 and 2 hours) n=3 animals were used.
The test compounds were suitably preformulated and administered orally at (free base equivalent) 3 mg/kg. Blood samples were removed via cardiac puncture by using isoflurane anesthesia. The animals were sacrificed to collect brain tissue. Plasma was separated and brain samples were homogenized and stored frozen at −20° C. until analysis. The concentrations of the test compounds in plasma and brain were determined using LC-MS/MS method.
The test compounds were quantified in plasma and brain homogenate by qualified LC-MS/MS method using suitable extraction technique. The test compounds were quantified in the calibration range of 1-500 ng/mL in plasma and brain homogenate. Study samples were analyzed using calibration samples in the batch and quality control samples spread across the batch. Extent of brain-plasma ratio was calculated (Cb/Cp).

[2] = molecular target: recombinant human Muscarinic M1 receptor (Homo sapiens (Human), UniProt P11229); assay: Allosteric potency EC50, CHO cells with pCRE-Luc reporter, in presence of EC20 of acetylcholine; type: cell-based; settings: 4 hours
Method in brief: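 Stable CHO cells carrying human M1 receptor and a pCRE-Luc reporter, serum-starved overnight, then exposed to rising compound concentrations plus EC20 acetylcholine in OptiMEM for 4 h at 37 °C. Luciferase read after lysis. EC50 is the concentration giving 50% luciferase stimulation with EC20 acetylcholine present.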

[3] = test system: soluble amyloid precursor protein α (sAPPα); assay: Cortical sAPPα levels in rat brain (ELISA); type: in vivo; settings: male Wistar rats, 10 mg/kg, i.p., sixty minutes post treatment; FIG. 5
Procedure: Modulation of Soluble Amyloid Precursor Protein α (sAPPα) Levels in Cortex
Estimation of Cortical sAPPα Levels in Rat Brain
Male Wistar rats (250±40 grams) were randomly divided (n=8 group) into different treatment groups. Control group of rats were intraperitoneally (i.p.) administered with vehicle (99.75% of 0.25% HEC HHX+0.25% tween 80). Rats from treatment groups received a single intraperitoneal injection of test compound (dose volume of 2 mL/kg). Rats were sacrificed by cervical dislocation at 60 minutes after administration of test compound. Brains were quickly isolated and the cortex was dissected at −20° C. The cortex was immediately kept on a dry ice and weighed before being stored at −80° C. until quantification of sAPPα using Enzyme-linked immunosorbent assay (ELISA).
• 1. […]
To investigate the role of an acute treatment of test compound on sAPPα levels, the expression of this protein was measured in homogenates obtained from the cortex of treated and untreated rats by employing ELISA assay. […]
Statistical analyses were performed using the Graph Pad Prism (Version 4). Results are expressed as Mean±SEM levels of sAPPα expressed as percentage of control values (rats treated with vehicle). Statistical significance after treatment was assessed using One-Way ANOVA followed by Dunnett's post test and the significance level was set below p value less than 0.05.

rats = assay: Modulation of cerebral blood flow in frontal cortex (Laser Doppler); type: in vivo, rat; settings: intravenous, anaesthetized rats; FIG. 6
Procedure: Modulation of Cerebral Blood Flow in Frontal Cortex:
The effect of test compound on modulation of cerebral blood flow was evaluated using rats.
Rats were acclimatized to the laboratory environment for at least 7 days. Rats (300-350 grams) were housed in a group of four in a controlled environment (Temp=21±3° C.; Humidity=30-70%) and maintained on a 12-hour light/dark cycle with lights on at 07:00 AM. Food and water was provided ad libitum.
Rats were anaesthetized with 12% urethane (i.p.). Animal's body core temperature was maintained at 37° C. via a heating pad and rectal temperature probe. A small incision was made at one of the ventral side of the hind limb and the femoral vein was cannulated with PE10 tubing for drug application. Then animal was placed into a stereotaxic frame and a midline incision was made to expose the skull. A burr hole was drilled over the frontal cortex (stereotaxic coordinates 1 mm anterior and 4 mm lateral to bregma). Oxygen was supplied through the nose cone of the seterotaxic apparatus which was connected to the controlled gaseous supplier with a flow of 200 mL/minute. Laser Doppler probe (AD Instruments Inc) was placed over the hole to monitor cerebral blood flow. […] Data obtained was calculated as percent increase relative to resting basal blood flow level. […]

Sequence of recombinant human Muscarinic M1 receptor (P11229 whole entry): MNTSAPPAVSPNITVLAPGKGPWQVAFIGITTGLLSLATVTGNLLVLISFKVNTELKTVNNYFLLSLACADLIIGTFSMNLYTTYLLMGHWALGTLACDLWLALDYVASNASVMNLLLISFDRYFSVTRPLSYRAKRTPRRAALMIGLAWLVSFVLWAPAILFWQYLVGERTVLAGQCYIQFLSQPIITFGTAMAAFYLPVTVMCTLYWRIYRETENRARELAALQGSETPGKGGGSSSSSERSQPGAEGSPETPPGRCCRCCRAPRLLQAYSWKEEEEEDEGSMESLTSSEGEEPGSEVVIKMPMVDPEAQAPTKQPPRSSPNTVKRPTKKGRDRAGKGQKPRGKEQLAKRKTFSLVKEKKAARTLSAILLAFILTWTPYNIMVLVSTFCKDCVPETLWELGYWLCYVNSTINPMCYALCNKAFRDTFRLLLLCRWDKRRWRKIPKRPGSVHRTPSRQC

With O=C(N[C@H]1CCCC[C@@H]1O)C1=CN(Cc2cccc(F)c2F)c2ccccc2O1 [Example 18, N-(cis-1S, 2S-2-Hydroxycyclohexyl)-4-(2,3-difluorobenzyl)-4H-benzo[1,4]oxazine-2-carboxamide] the Kp [1] was 2.27 ± 0.64, the EC50 [2] was 331 nM and the “mean maximum increase in cortical sAPPα levels” value [3] was 26%. For the same compound, the “cerebral blood flow in the frontal cortex” value (rats) was “significantly increased”.
